Our source for the IC50 values is patent US20250288589A1, “PYRIDOPYRIMIDINES AND METHODS OF THEIR USE” (Kineta, Inc., priority 2021, published 2025).

Usually IC50 stands for the concentration that inhibits the measured activity by half.

Some results are limits rather than exact numbers.

The subject of the first assay is PIKFYVE TDP-43 yeast strain. The experiment in a line: Propidium iodide viability assay in PIKFYVE TDP-43 yeast strain. In kind it is cell-based. The conditions noted are these: Saccharomyces cerevisiae; reduction in PI-positive cells, 24 hours, 15 μM to 0.11 μM; plotted in FIG. 7. From the text: Generation of TDP-43 yeast model expressing human PIKfyve. Human PIKFYVE (“entry clone”) was cloned into pAG416GPDccdB (“destination vector”) according to standard Gateway cloning protocols (Invitrogen, Life Technologies). The resulting pAG416GPD-PIKFYVE plasmids were amplified in E. coli and plasmid identity confirmed by restriction digest and Sanger sequencing. Lithium acetate/polyethylene glycol-based transformation was used to introduce the above PIKFYVE plasmid into a BY4741 yeast strain auxotrophic for the ura3 gene and deleted for two transcription factors that regulate the xenobiotic efflux pumps, a major efflux pump, and FAB1, the yeast ortholog of PIKFYVE (MATa, snq2::KILeu2; pdr3::Klura3;pdr1::NATMX; fab1::G418^R, his3;leu2;ura3;met15;LYS2+) (FIG. 2).
Transformed yeast were plated on solid agar plates with complete synthetic media lacking uracil (CSM-ura) and containing 2% glucose. Individual colonies harboring the control or PIKFYVE TDP-43 plasmids were recovered. A plasmid containing wild-type TDP-43 under the transcriptional control of the GAL1 promoter and containing the hygromycin-resistance gene as a selectable marker was transformed into the fab1::G418^R pAG416GPD-PIKFYVE yeast strain (FIG. 1). Transformed yeast were plated on CSM-ura containing 2% glucose and […] after overnight recovery in media lacking antibiotic. Multiple independent isolates were further evaluated for cytotoxicity and TDP-43 expression levels.
Viability Assay. A control yeast strain with the wild-type yeast FAB1 gene and TDP-43 (“FAB1 TDP-43”, carries empty pAG416 plasmid), and the “PIKFYVE TDP-43” yeast strain, were assessed for toxicity using a propidium iodide viability assay. Both yeast strains were transferred from solid CSM-ura/2% glucose agar plates into 3 mL of liquid CSM-ura/2% glucose media for 6-8 hours at 30° C. with aeration. Yeast cultures were then diluted to an optical density at 600 nm wavelength (OD600) of 0.005 in 3 mL of CSM-ura/2% raffinose and grown overnight at 30° C. with aeration to an OD600 of 0.3-0.8. Log-phase overnight cultures were diluted to OD600 of 0.005 in CSM-ura containing either 2% raffinose or galactose and 150 μL dispensed into each well of a flat bottom 96-well plates. Compounds formulated in 100% dimethyl sulfoxide (DMSO) were serially diluted in DMSO and 1.5 μL diluted compound transferred to the 96-well plates using a multichannel pipet. Wells containing DMSO alone were also evaluated as controls for compound effects. Tested concentrations ranged from 15 μM to 0.11 μM. Cultures were immediately mixed to ensure compound distribution and covered plates incubated at 30° C. for 24 hours in a stationary, humified incubator.
Upon the completion of incubation, cultures were assayed for viability using propidium iodide (PI) to stain for dead/dying cells. A working solution of PI was made where, for each plate, 1 μL of 10 mM PI was added to 10 mL of CSM-ura (raffinose or galactose). The final PI solution (50 μL/well) was dispensed into each well of a new round bottom 96-well plate. The overnight 96-well assay plate was then mixed with a multichannel pipet and 50 μL transferred to the PI-containing plate. This plate was then incubated for 30 minutes at 30° C. in the dark. A benchtop flow cytometer (Miltenyi MACSquant) was then used to assess red fluorescence (B2 channel), forward scatter, and side scatter (with following settings: gentle mix, high flow rate, fast measurement, 10,000 events). Intensity histograms were then gated for “PI-positive” or “PI-negative” using the raffinose and galactose cultures treated with DMSO as controls. The DMSO controls for raffinose or galactose-containing cultures were used to determine the window of increased cell death and this difference set to 100. All compounds were similarly gated and then compared to this maximal window to establish the percent reduction in PI-positive cells.
As to `c1ccc(-c2ccnc(-c3cc(N4CCOCC4)nc(OCc4ccncc4)n3)n2)cc1`, the IC50 stood at 1450 nM.

For the compound `c1ccc(N2CCc3c(OCc4cccnc4)nc(N4CCOCC4)nc32)cc1`, inhibition was half-maximal at 2680 nM (IC50).

For `Cc1cccc(/C=N/Nc2nc(N3CCOCC3)c3nc(-c4ccncc4)n(C)c3n2)c1`, the IC50 was found to be 4720 nM.

Take `Cc1cccc(/C=N/Nc2cc(N3CCOCC3)nc(OCCc3ccc(CN)cc3)n2)c1`: the IC50 worked out at 1120 nM.

`c1ccc(-c2cccc(-c3cc(N4CCOCC4)n4nc(-c5ccncc5)cc4n3)n2)cc1` showed an IC50 of 230 nM.

Consider `Oc1cc(C2CCOCC2)nn1-c1cc(N2CCOCC2)n2nc(-c3ccncc3)cc2n1`, for which 9100 nM corresponded to half-maximal inhibition (IC50).

Turning to `Cc1cccc(/C=N/Nc2nc(N3CCOCC3)c3ncccc3n2)c1`, the IC50 was determined as 8210 nM.

On to `Fc1cccc(-c2ccnn2-c2nc(N3CCOCC3)c3ncccc3n2)c1`, for which the IC50 is 5750 nM.

Compound `Oc1cc(-c2ccccc2)nn1-c1cc(N2CCOCC2)n2nc(-c3ccncc3)nc2n1` displayed an IC50 of 693 nM.

Another assay deals with T1, full-length human PIKFYVE (Homo sapiens, UniProt Q9Y2I7, L932S/Q1183K/Q995L/S1033A/S696N/T998S).
T1 construct: A full-length human PIKFYVE [1-2098(end) amino acids and S696N, L932S, Q995L, T998S, S1033A and Q1183K; purchased Carna Biosciences; host or cells: baculovirus expression system
T1 sequence (Q9Y2I7 whole entry S696N/L932S/Q995L/T998S/S1033A/Q1183K): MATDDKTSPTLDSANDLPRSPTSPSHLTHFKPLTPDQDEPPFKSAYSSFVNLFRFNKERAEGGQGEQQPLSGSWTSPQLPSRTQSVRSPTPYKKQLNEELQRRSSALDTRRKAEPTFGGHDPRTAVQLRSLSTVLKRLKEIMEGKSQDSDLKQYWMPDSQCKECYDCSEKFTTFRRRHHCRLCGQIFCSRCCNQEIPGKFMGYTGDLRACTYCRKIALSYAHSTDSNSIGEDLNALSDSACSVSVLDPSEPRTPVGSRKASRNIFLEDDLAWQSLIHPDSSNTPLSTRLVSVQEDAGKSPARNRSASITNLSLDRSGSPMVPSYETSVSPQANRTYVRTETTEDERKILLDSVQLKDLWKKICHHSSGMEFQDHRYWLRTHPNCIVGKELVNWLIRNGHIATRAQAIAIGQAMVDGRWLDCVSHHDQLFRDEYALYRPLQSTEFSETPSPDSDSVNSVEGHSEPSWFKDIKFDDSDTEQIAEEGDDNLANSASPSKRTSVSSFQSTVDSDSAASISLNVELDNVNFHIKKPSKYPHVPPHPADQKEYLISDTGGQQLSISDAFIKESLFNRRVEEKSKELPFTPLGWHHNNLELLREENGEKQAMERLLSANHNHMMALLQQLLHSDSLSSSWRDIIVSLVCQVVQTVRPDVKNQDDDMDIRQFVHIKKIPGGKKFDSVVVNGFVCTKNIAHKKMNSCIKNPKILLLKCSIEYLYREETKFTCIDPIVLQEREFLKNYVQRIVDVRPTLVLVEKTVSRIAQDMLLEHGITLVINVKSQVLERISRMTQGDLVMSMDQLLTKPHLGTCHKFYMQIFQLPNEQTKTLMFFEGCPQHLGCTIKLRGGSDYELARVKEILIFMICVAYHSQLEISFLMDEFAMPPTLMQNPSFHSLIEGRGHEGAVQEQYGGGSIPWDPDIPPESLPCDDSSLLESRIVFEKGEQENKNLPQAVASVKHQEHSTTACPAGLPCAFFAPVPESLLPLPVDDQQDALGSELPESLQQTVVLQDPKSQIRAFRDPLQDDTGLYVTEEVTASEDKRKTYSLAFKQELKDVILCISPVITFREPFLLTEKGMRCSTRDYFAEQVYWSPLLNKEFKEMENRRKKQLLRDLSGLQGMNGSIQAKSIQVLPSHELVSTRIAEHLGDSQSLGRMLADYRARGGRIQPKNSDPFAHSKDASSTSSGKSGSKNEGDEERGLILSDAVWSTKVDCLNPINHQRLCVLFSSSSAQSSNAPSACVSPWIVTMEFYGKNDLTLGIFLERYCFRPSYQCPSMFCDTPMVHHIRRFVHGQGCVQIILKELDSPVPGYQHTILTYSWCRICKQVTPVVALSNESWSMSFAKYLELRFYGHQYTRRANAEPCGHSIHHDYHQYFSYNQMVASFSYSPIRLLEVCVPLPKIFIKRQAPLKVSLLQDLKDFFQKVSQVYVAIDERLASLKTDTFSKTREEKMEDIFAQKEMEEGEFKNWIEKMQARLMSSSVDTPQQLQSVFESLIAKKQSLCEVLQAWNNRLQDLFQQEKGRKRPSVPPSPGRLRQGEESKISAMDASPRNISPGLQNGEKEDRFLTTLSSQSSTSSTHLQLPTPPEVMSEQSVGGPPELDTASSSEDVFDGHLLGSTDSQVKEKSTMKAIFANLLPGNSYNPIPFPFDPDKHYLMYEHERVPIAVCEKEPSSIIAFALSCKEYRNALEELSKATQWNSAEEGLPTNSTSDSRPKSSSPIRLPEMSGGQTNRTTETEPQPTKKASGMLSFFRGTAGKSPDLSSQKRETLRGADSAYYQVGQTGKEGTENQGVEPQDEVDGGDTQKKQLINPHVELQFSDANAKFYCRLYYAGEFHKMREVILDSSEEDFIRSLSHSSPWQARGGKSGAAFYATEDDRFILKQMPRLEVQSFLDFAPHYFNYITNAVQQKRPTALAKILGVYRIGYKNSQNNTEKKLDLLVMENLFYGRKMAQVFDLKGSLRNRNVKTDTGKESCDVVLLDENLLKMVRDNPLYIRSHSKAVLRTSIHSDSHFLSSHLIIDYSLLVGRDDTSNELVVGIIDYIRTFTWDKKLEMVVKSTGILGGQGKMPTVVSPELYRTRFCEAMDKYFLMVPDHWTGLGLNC
Kind of assay: PIKfyve biochemical assay (ADP-Glo Kinase assay, Carna Biosciences). The conditions noted are these: GST-PIKFYVE, 10 μM to 3 nM in duplicate, read-out: hPIKfyve IC50.
Description: (§1) PIKfyve Biochemical Assay. The biochemical PIKFyve inhibition assays were run by Carna Biosciences according to proprietary methodology based on the Promega ADP-Glo™ Kinase assay. A full-length human PIKFYVE [1-2098(end) amino acids and S696N, L932S, Q995L, T998S, S1033A and Q1183K of the protein having the sequence set forth in NCBI Reference Sequence No. NP_055855.2] was expressed as N-terminal GST-fusion protein (265 kDa) using baculovirus expression system. GST-PIKFYVE was purified by using glutathione sepharose chromatography and used in an ADP-Glo™ Kinase assay (Promega). Reactions were set up by adding the test compound solution, substrate solution, ATP solution and kinase solution, each at 4× final concentrations. Reactions were prepared with assay buffer (50 mM MOPS, 1 mM DTT, pH7.2), mixed, and incubated in black 384 well polystyrene plates for 1 hour at room temperature. ADP-Glo™ reagent was then added for 40 minutes, followed by kinase detection reagent for an additional 40 minutes. The kinase activity was evaluated by detecting relative light units on a luminescence plate reader. Samples were run in duplicate from 10 μM to 3 nM. […] IC50 values were calculated from concentration vs % inhibition curves by fitting to a four-parameter logistic curve.
as §1, with “The” for “PIKfyve Biochemical Assay. The”, “accession number” for “the protein having the sequence set forth in NCBI Reference Sequence No.”, “uM” for “μM”
Turning to `FC(F)(F)Cn1ccc(-c2nc(N3CCOCC3)c3ncccc3n2)n1` [Compound 68, 4-(2-(1-(2,2,2-trifluoroethyl)-1H-pyrazol-3-yl)pyrido[3,2-d]pyrimidin-4-yl)morpholine], the IC50 was in the range of 1000 to 10000 nM.

Regarding `c1ccc(-c2ccn(-c3nc(N4CCOCC4)c4ncc(N5CCNCC5)cc4n3)n2)cc1` [Compound 42, 4-[2-(3-phenylpyrazol-1-yl)-7-piperazin-1-yl-pyrido[3,2-d]pyrimidin-4-yl]morpholine], the IC50 fell in the range of 10 to 100 nM.

For `c1ccc2c(c1)cnn2-c1nc(N2CCOCC2)c2ncccc2n1` [Compound 109, 4-(2-indazol-1-ylpyrido[3,2-d]pyrimidin-4-yl)morpholine], the IC50 lay within 100 to 1000 nM.

In the case of `CC1COCCN1c1nc(-n2ccc(-c3ccccc3)n2)nc2cccnc12` (centres unmarked) [Compound 31, 3-methyl-4-(2-(3-phenyl-1H-pyrazol-1-yl)pyrido[3,2-d]pyrimidin-4-yl)morpholine], the concentration for half-maximal inhibition (IC50) lay in the range of 100 to 1000 nM.

Regarding `Cc1cccc(-c2cc(O)n(-c3nc(N4CCOCC4)c4ncc(-c5ccoc5)cc4n3)n2)c1` [Compound 70, 1-(7-(furan-3-yl)-4-morpholinopyrido[3,2-d]pyrimidin-2-yl)-3-m-tolyl-1H-pyrazol-5-ol], the IC50 was < 10 nM.

With `c1coc(-c2nccc(-c3nc(N4CCOCC4)c4ncccc4n3)n2)c1` [Compound 99, 4-(2-(2-(furan-2-yl)pyrimidin-4-yl)pyrido[3,2-d]pyrimidin-4-yl)morpholine], the IC50 is 1000 to 10000 nM.

For the compound `Fc1cccc(Nc2nc(N3CCOCC3)c3ncc(Cc4cccnc4)cc3n2)c1` [Compound 129, N-(3-fluorophenyl)-4-morpholino-7-(pyridin-3-ylmethyl)pyrido[3,2-d]pyrimidin-2-amine], the IC50 is 100 to 1000 nM.

As for `c1ccc(-c2ccn(-c3nc(N4CCOCC4)c4ncc(C5CCNCC5)cc4n3)n2)cc1` [Compound 36, 4-(2-(3-phenyl-1H-pyrazol-1-yl)-7-(piperidin-4-yl)pyrido[3,2-d]pyrimidin-4-yl)morpholine], the IC50 was in the range of 10 to 100 nM.

As to `O=C1N(c2nc(N3CCOCC3)c3ncccc3n2)CCN1C1CCCC1` [Compound 78, 1-cyclopentyl-3-(4-morpholinopyrido[3,2-d]pyrimidin-2-yl)imidazolidin-2-one], the IC50 is > 10000 nM.

For `CC(C)(C)OC(=O)N1CCC(Cc2ccn(-c3nc(N4CCOCC4)c4ncccc4n3)n2)C1` (centres unmarked) [Compound 63, tert-butyl 3-[[1-(4-morpholinopyrido[3,2-d]pyrimidin-2-yl)pyrazol-3-yl]methyl]pyrrolidine-1-carboxylate], the 50% inhibitory concentration (IC50) was in the range of 1000 to 10000 nM.

`CN1CCC(c2nccc(-c3nc(N4CCOCC4)c4ncccc4n3)n2)CC1` [Compound 85, 4-[2-[2-(1-methyl-4-piperidyl)pyrimidin-4-yl]pyrido[3,2-d]pyrimidin-4-yl]morpholine]: the IC50 is > 10000 nM.

With `c1cc(-c2ccn(-c3nc(N4CCOCC4)c4ncc(C5CCOCC5)cc4n3)n2)ncn1` [Compound 53, 4-[2-(3-pyrimidin-4-ylpyrazol-1-yl)-7-tetrahydropyran-4-yl-pyrido[3,2-d]pyrimidin-4-yl]morpholine], the IC50 was > 10000 nM.

For the compound `Cc1cnc(-c2ccccc2)nc1-c1nc(N2CCOCC2)c2ncccc2n1` [Compound 96, 4-(2-(5-methyl-2-phenylpyrimidin-4-yl)pyrido[3,2-d]pyrimidin-4-yl)morpholine], the IC50 lay in the range of 1000 to 10000 nM.

Regarding `COc1cccc(-c2ccn(-c3nc(N4CCOCC4)c4ncccc4n3)n2)c1` [Compound 27, 4-(2-(3-(3-methoxyphenyl)-1H-pyrazol-1-yl)pyrido[3,2-d]pyrimidin-4-yl)morpholine], the IC50 fell in the range of 10 to 100 nM.
